Experiments:
[1] = target: Protein transport protein Sec23B (Homo sapiens) (UniProt Q15437)
[2] = target: Protein unc-119 homolog A (Homo sapiens) (UniProt Q13432)
[3] = target: F-actin-capping protein subunit alpha-2 (Homo sapiens) (UniProt P47755)
[4] = target: Actin-related protein 2/3 complex subunit 1B (Homo sapiens) (UniProt O15143)
[5] = target: Glyceraldehyde-3-phosphate dehydrogenase (Homo sapiens) (UniProt P04406)
[6] = target: Small ribosomal subunit protein mS23 (Homo sapiens) (UniProt Q9Y3D9)
[7] = target: Mitochondrial Rho GTPase 2 (Homo sapiens) (UniProt Q8IXI1)
Mitochondrial Rho GTPase 2 (Homo sapiens), sequence (Q8IXI1 whole entry, looked up): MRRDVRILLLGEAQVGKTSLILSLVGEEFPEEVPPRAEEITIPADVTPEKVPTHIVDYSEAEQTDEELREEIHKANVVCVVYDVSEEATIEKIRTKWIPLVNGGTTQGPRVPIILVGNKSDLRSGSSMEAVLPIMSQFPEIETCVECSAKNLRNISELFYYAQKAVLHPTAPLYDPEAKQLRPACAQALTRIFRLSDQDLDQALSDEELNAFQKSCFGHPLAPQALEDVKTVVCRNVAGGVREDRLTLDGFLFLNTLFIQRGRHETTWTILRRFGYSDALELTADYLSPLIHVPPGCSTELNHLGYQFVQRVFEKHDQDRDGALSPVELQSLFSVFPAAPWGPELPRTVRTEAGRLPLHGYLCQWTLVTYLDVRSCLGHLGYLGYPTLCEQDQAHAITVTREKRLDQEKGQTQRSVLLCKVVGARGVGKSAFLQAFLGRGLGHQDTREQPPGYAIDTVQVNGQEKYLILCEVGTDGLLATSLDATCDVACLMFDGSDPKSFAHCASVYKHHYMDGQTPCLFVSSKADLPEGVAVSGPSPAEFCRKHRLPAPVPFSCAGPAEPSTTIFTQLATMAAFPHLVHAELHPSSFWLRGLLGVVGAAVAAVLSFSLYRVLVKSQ

[8] = target: Calcium/calmodulin-dependent protein kinase type IV (Homo sapiens) (UniProt Q16566)
Homo sapiens [9] = species on record: Homo sapiens
[10] = target: Glycine--tRNA ligase (Homo sapiens) (UniProt P41250)
[11] = target: T-complex protein 1 subunit alpha (Homo sapiens) (UniProt P17987)
[12] = target: Casein kinase I isoform gamma-1 (Homo sapiens) (UniProt Q9HCP0)
[13] = target: Calcium/calmodulin-dependent protein kinase kinase 2 (Homo sapiens) (UniProt Q96RR4)
Nestin (Homo sapiens) = Nestin (Homo sapiens) (UniProt P48681)
[14] = target: Signal recognition particle 9 kDa protein (Homo sapiens) (UniProt P49458)
[15] = target: Zona pellucida sperm-binding protein 1 (Homo sapiens) (UniProt P60852)
[16] = target: Serine/threonine-protein kinase Chk1 (Homo sapiens) (UniProt O14757)
[17] = target: Large ribosomal subunit protein bL12m (Homo sapiens) (UniProt P52815)
Ephrin type-A receptor 5 = Ephrin type-A receptor 5 (Homo sapiens, UniProt P54756)
Ephrin type-A receptor 5, sequence (P54756 whole entry): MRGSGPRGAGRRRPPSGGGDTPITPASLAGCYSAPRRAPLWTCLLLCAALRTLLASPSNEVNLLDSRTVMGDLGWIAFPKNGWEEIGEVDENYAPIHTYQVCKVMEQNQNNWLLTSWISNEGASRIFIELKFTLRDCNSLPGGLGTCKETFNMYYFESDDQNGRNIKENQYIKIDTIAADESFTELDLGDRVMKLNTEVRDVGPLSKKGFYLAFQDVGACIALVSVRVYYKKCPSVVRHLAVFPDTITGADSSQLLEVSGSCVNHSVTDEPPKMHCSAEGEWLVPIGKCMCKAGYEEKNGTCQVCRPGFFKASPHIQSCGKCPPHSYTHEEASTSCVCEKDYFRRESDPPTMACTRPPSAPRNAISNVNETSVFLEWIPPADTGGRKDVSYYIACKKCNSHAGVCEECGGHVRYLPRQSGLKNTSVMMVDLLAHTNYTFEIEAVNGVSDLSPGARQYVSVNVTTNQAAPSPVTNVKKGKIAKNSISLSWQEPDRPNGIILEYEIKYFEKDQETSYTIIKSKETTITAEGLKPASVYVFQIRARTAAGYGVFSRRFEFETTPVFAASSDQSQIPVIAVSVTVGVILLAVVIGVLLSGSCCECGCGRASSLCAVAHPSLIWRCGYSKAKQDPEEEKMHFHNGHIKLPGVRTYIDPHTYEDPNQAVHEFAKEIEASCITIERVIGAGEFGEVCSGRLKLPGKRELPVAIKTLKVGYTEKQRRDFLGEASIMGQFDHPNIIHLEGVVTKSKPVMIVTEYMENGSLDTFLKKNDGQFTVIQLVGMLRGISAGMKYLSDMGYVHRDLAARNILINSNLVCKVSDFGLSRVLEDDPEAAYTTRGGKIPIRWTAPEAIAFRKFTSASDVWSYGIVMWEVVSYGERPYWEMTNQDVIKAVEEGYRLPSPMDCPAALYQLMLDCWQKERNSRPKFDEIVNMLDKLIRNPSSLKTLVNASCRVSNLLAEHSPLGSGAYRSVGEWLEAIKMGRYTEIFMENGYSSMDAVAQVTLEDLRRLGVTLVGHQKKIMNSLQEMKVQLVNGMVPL

[18] = target: Serine/threonine-protein phosphatase 6 regulatory subunit 1 (Homo sapiens) (UniProt Q9UPN7)
[19] = target: Tyrosine-protein kinase JAK1 (Homo sapiens) (UniProt P23458)
[20] = target: Ubiquitin thioesterase OTUB1 (Homo sapiens) (UniProt Q96FW1)
Ubiquitin thioesterase OTUB1 (Homo sapiens), sequence (Q96FW1 whole entry): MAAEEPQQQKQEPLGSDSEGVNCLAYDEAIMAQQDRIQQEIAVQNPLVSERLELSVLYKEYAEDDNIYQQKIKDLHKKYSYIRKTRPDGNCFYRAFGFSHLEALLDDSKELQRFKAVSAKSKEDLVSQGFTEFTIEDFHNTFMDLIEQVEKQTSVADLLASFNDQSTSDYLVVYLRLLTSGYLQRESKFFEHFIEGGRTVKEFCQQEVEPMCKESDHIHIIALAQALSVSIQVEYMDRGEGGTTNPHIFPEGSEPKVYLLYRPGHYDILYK

[21] = target: NADH dehydrogenase [ubiquinone] iron-sulfur protein 2, mitochondrial (Homo sapiens) (UniProt O75306)
[22] = target: RNA-binding protein RO60 (Homo sapiens) (UniProt P10155)
Homo sapiens [23] = species on record: Homo sapiens; remark: listed apart in the source
[24] = target: Non-POU domain-containing octamer-binding protein (Homo sapiens) (UniProt Q15233)
Non-POU domain-containing octamer-binding protein (Homo sapiens), sequence (Q15233 whole entry, the tested form may be a part): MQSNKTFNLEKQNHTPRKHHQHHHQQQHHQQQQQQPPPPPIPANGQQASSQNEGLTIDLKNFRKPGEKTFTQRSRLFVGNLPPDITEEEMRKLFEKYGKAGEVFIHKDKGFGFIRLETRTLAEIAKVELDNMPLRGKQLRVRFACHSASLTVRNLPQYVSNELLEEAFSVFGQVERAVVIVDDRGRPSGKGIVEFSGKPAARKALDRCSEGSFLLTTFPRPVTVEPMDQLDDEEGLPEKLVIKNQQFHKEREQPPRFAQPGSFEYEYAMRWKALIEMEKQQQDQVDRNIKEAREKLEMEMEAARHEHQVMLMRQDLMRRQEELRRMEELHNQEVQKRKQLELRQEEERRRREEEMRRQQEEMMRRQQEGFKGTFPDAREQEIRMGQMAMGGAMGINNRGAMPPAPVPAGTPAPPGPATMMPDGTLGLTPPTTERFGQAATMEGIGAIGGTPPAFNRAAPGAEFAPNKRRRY

[25] = target: Large ribosomal subunit protein eL38 (Homo sapiens) (UniProt P63173)
[26] = target: Histone H1.4 (Homo sapiens) (UniProt P10412)
Histone H1.4 (Homo sapiens), sequence (P10412 whole entry): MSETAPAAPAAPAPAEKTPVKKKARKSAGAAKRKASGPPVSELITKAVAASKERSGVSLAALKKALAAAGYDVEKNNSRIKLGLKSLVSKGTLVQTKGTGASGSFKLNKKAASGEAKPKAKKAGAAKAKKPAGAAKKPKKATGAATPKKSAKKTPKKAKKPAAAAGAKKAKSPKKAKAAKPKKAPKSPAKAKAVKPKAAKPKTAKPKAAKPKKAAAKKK

[27] = target: Tricarboxylate transport protein, mitochondrial (Homo sapiens) (UniProt P53007)
[28] = target: Proto-oncogene tyrosine-protein kinase Src (Homo sapiens) (UniProt P12931)
[29] = target: LIM domain kinase 2 (Homo sapiens) (UniProt P53671)
[30] = target: General transcription and DNA repair factor IIH helicase subunit XPD (Homo sapiens) (UniProt P18074)
[31] = target: Serine/threonine-protein kinase B-raf (Homo sapiens) (UniProt P15056)
Serine/threonine-protein kinase B-raf (Homo sapiens), sequence (P15056 whole entry): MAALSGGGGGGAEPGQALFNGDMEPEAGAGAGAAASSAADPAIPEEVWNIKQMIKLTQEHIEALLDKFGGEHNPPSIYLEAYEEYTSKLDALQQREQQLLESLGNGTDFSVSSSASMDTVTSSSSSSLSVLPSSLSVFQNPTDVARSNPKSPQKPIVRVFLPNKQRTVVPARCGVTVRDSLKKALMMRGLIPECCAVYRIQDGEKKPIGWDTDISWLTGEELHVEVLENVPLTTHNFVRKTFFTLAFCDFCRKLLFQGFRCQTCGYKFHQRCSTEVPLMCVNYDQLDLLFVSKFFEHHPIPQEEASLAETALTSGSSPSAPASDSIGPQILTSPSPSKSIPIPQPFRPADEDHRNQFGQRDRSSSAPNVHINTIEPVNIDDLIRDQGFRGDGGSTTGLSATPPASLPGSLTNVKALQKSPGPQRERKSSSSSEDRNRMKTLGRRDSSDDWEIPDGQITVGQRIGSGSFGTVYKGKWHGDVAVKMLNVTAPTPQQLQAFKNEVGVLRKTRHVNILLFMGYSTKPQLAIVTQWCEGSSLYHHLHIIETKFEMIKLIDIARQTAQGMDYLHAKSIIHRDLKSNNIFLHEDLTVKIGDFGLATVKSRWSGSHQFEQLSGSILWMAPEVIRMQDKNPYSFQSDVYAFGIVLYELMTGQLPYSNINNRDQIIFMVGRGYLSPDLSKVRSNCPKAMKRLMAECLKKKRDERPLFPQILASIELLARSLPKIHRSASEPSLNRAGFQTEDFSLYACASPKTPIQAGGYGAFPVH

[32] = target: Mitogen-activated protein kinase 9 (Homo sapiens) (UniProt P45984)
[33] = target: Signal peptidase complex catalytic subunit SEC11A (Homo sapiens) (UniProt P67812)
Signal peptidase complex catalytic subunit SEC11A (Homo sapiens), sequence (P67812 whole entry, one chain of several): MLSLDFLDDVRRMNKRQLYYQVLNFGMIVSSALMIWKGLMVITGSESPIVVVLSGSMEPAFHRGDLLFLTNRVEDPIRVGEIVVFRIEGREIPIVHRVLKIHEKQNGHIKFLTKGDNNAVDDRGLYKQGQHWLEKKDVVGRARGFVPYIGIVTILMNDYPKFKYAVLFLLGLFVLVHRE

[34] = target: Ubiquitin-protein ligase E3C (Homo sapiens) (UniProt Q15386)
[35] = target: ATP synthase F(1) complex subunit gamma, mitochondrial (Homo sapiens) (UniProt P36542)
[36] = target: Oligosaccharyltransferase complex subunit OSTC (Homo sapiens) (UniProt Q9NRP0)
Oligosaccharyltransferase complex subunit OSTC (Homo sapiens), sequence (Q9NRP0 whole entry, one chain of several): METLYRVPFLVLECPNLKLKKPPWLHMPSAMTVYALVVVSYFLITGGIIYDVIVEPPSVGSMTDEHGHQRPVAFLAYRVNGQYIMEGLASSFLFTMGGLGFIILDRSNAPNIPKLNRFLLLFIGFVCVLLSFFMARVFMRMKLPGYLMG

[37] = target: Dolichyl-diphosphooligosaccharide--protein glycosyltransferase subunit STT3A (Homo sapiens) (UniProt P46977)
[38] = target: Unconventional myosin-If (Homo sapiens) (UniProt O00160)
[39] = target: Minor histocompatibility antigen H13 (Homo sapiens) (UniProt Q8TCT9)
[40] = target: Monocarboxylate transporter 1 (Homo sapiens) (UniProt P53985)
[41] = target: cAMP-dependent protein kinase type II-alpha regulatory subunit (Homo sapiens) (UniProt P13861)
[42] = target: Mitogen-activated protein kinase 11 (Homo sapiens) (UniProt Q15759)
[43] = target: Cyclin-G-associated kinase (Homo sapiens) (UniProt O14976)
Cyclin-G-associated kinase (Homo sapiens), sequence (O14976 whole entry): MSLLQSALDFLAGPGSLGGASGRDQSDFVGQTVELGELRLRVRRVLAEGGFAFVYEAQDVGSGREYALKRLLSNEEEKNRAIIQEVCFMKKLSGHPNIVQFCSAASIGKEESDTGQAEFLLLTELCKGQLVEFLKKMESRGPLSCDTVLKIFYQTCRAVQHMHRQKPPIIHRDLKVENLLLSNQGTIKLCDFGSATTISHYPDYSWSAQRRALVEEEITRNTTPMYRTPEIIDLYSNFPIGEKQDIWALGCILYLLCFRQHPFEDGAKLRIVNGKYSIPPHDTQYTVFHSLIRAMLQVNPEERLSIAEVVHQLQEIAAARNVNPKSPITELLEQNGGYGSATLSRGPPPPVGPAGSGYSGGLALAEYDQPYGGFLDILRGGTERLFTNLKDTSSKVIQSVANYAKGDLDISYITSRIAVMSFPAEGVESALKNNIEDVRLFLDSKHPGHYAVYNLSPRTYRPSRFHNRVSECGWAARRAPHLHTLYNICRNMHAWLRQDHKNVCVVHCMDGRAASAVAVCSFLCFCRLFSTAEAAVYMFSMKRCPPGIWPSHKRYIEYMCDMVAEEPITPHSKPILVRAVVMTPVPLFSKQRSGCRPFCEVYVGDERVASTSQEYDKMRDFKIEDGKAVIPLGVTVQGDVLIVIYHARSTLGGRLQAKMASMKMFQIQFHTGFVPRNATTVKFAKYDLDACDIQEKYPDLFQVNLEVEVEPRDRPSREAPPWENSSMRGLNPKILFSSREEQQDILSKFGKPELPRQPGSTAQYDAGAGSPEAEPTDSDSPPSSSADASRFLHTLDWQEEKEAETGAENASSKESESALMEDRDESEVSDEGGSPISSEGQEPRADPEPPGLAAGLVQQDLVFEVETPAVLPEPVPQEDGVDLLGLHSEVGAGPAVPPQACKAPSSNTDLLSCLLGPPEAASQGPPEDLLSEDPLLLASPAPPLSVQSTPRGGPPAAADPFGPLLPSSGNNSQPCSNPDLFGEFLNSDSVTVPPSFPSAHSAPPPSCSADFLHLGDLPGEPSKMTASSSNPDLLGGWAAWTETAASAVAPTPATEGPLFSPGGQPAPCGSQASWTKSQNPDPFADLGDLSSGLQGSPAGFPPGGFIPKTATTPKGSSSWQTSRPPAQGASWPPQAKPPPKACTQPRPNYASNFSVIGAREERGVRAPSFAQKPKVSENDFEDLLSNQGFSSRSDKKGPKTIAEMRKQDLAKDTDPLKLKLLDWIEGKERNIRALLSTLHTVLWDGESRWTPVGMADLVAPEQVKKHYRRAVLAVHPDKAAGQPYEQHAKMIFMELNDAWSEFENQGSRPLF

[44] = target: 60 kDa heat shock protein, mitochondrial (Homo sapiens) (UniProt P10809)
Further: assay method not described here.

Compound Cc1ccc(C(=O)Nc2cccc(C(F)(F)F)c2)cc1Nc1nc(-c2cccnc2)nc2c1cnn2C has an ED50 [1] of 9.39 µM, an ED50 [2] of 0.46 µM and an ED50 [3] of 3.23 µM. The ED50 [4] was 115 µM, the ED50 [5] was 8.39 µM and the ED50 [6] was 20.2 µM. It also gave an ED50 [7] of 1.14 µM, an ED50 [8] of 2.34 µM and an ED50 (Homo sapiens [9]) of 16.8 µM. For the same compound, the ED50 [10] was 0.0374 µM, the ED50 [11] was 0.0234 µM and the ED50 [12] was 0.27 µM. The ED50 [13] was 0.112 µM, the ED50 (Nestin (Homo sapiens)) was 0.244 µM and the ED50 [14] was 5.32 µM. It also gave an ED50 [15] of 0.00241 µM, an ED50 [16] of 1.32 µM and an ED50 [17] of 7.74 µM. The ED50 (Ephrin type-A receptor 5) was 0.0633 µM, the ED50 [18] was 10.4 µM and the ED50 [19] was 0.0138 µM. The ED50 [20] was 3.76 µM, the ED50 [21] was 0.0453 µM and the ED50 [22] was 2.18 µM. The ED50 (Homo sapiens [23]) was 0.00517 µM, the ED50 [24] was 3.17 µM and the ED50 [25] was 8.36 µM. It also gave an ED50 [26] of 62.9 µM, an ED50 [27] of 4.38 µM and an ED50 [28] of 3.6 µM. It also gave an ED50 [29] of 2.57 µM, an ED50 [30] of 0.199 µM and an ED50 [31] of 3.64 µM. The ED50 [32] was 0.0588 µM, the ED50 [33] was 430 µM and the ED50 [34] was 0.0117 µM. It also gave an ED50 [35] of 3.13 µM, an ED50 [36] of 15.6 µM and an ED50 [37] of 1.12 µM. The ED50 [38] was 4.43 µM, the ED50 [39] was 9.93 µM and the ED50 [40] was 0.0482 µM. The ED50 [41] was 8.24 µM, the ED50 [42] was 0.0255 µM and the ED50 [43] was 4.02 µM. The ED50 [44] was 0.0041 µM.

Work on Cc1ccc(C(=O)Nc2cccc(C(F)(F)F)c2)cc1Nc1nc(-c2cccnc2)nc2nn(C)cc12 yielded an ED50 [1] of 0.0397 µM, an ED50 [2] of 47.8 µM and an ED50 [3] of 2.53 µM. The ED50 [4] was 0.0545 µM, the ED50 [5] was 0.0602 µM and the ED50 [6] was 11.4 µM. It also gave an ED50 [7] of 97 µM, an ED50 [8] of 2.78 µM and an ED50 (Homo sapiens [9]) of 0.00606 µM. For the same compound, the ED50 [10] was 17.6 µM, the ED50 [11] was 0.082 µM and the ED50 [12] was 3.41 µM. It also gave an ED50 [13] of 10.2 µM, an ED50 (Nestin (Homo sapiens)) of 1.3 µM and an ED50 [14] of 2440 µM. It also gave an ED50 [15] of 4.25 µM, an ED50 [16] of 20.6 µM and an ED50 [17] of 0.117 µM. It also gave an ED50 (Ephrin type-A receptor 5) of 0.982 µM, an ED50 [18] of 0.00142 µM and an ED50 [19] of 0.0748 µM. It also gave an ED50 [20] of 0.655 µM, an ED50 [21] of 1.24 µM and an ED50 [22] of 0.0205 µM. It also gave an ED50 (Homo sapiens [23]) of 22.8 µM, an ED50 [24] of 0.0517 µM and an ED50 [25] of 0.0274 µM. It also gave an ED50 [26] of 5.19 µM, an ED50 [27] of 4.79 µM and an ED50 [28] of 3.43 µM. It also gave an ED50 [29] of 1.38 µM, an ED50 [30] of 21.8 µM and an ED50 [31] of 9.35 µM. The ED50 [32] was 13.7 µM, the ED50 [33] was 6.74 µM and the ED50 [34] was 0.0836 µM. The ED50 [35] was 2.43 µM, the ED50 [36] was 1.15 µM and the ED50 [37] was 0.00986 µM. For the same compound, the ED50 [38] was 0.105 µM, the ED50 [39] was 10.6 µM and the ED50 [40] was 2.98 µM. For the same compound, the ED50 [41] was 0.325 µM, the ED50 [42] was 6.69 µM and the ED50 [43] was 2.32 µM. The ED50 [44] was 0.148 µM.
